Assay results from US12049450B2, “Pyridyloxy-carboxylate derivative and preparation method therefor, herbicidal composition, and use” (Qingdao Kingagroot Chemical Compound Co., Ltd., priority 2018, dated 2024).

Key:
Assay in all cases: Post-emergence test experiment (greenhouse pot, spray at 2-3 leaf stage)
Type in all cases: in vivo
Conditions in all cases: 1000 g/ha; post-emergence spray at 2-3 leaf stage; assessed after 3 weeks; fresh weight inhibition rate
[1] = system: Galium spurium
Method in brief: (§1)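 Activity graded levels 0-5 by fresh-weight inhibition (level 5 above 85%, level 0 below 5%), assessed 3 weeks after treatment. Plants grown in greenhouse pots were sprayed post-emergence at 2-3 leaves using acetone/tween-80 solutions with methyl oleate synergist (1.5 L/ha).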

[2] = system: Abutilon theophrasti
Method in brief: as §1

[3] = system: Digitaria sanguinalis
Method in brief: as §1

[4] = system: Monochoria vaginalis
Method in brief: as §1

[5] = system: Echinochloa crusgalli
Method in brief: as §1

Cc1ccc(CSC(=O)C(C)Oc2nc(F)c(Cl)c(N)c2Cl)cc1 (centres unmarked) [Compound 220]
Activity level (growth inhibition rate) Galium spurium [1]: 5 (Level 5: the growth inhibition rate is greater than 85%)
Activity level (growth inhibition rate) Abutilon theophrasti [2]: 5 (Level 5: the growth inhibition rate is greater than 85%)
Activity level (growth inhibition rate) Digitaria sanguinalis [3]: 5 (Level 5: the growth inhibition rate is greater than 85%)
Activity level (growth inhibition rate) Monochoria Vaginalis [4]: 5 (Level 5: the growth inhibition rate is greater than 85%)
Activity level (growth inhibition rate) Echinochloa crusgalli [5]: 5 (Level 5: the growth inhibition rate is greater than 85%)

CC(=O)Cc1ccc(COC(=O)C(C)Oc2nc(F)c(Cl)c(N)c2Cl)cc1 (centres unmarked) [Compound 99]
Activity level (growth inhibition rate) Galium spurium [1]: 5 (Level 5: the growth inhibition rate is greater than 85%)
Activity level (growth inhibition rate) Abutilon theophrasti [2]: 5 (Level 5: the growth inhibition rate is greater than 85%)
Activity level (growth inhibition rate) Digitaria sanguinalis [3]: 5 (Level 5: the growth inhibition rate is greater than 85%)
Activity level (growth inhibition rate) Monochoria Vaginalis [4]: 5 (Level 5: the growth inhibition rate is greater than 85%)
Activity level (growth inhibition rate) Echinochloa crusgalli [5]: 5 (Level 5: the growth inhibition rate is greater than 85%)

CC(Oc1nc(F)c(Cl)c(N)c1Cl)C(=O)OCc1nc2ccccc2s1 (centres unmarked) [Compound 178]
Activity level (growth inhibition rate) Galium spurium [1]: 5 (Level 5: the growth inhibition rate is greater than 85%)
Activity level (growth inhibition rate) Abutilon theophrasti [2]: 5 (Level 5: the growth inhibition rate is greater than 85%)
Activity level (growth inhibition rate) Digitaria sanguinalis [3]: 5 (Level 5: the growth inhibition rate is greater than 85%)
Activity level (growth inhibition rate) Monochoria Vaginalis [4]: 5 (Level 5: the growth inhibition rate is greater than 85%)
Activity level (growth inhibition rate) Echinochloa crusgalli [5]: 5 (Level 5: the growth inhibition rate is greater than 85%)

CC(Oc1nc(F)c(Cl)c(N)c1Cl)C(=O)SCc1ccsn1 (centres unmarked) [Compound 161]
Activity level (growth inhibition rate) Galium spurium [1]: 5 (Level 5: the growth inhibition rate is greater than 85%)
Activity level (growth inhibition rate) Abutilon theophrasti [2]: 5 (Level 5: the growth inhibition rate is greater than 85%)
Activity level (growth inhibition rate) Digitaria sanguinalis [3]: 5 (Level 5: the growth inhibition rate is greater than 85%)
Activity level (growth inhibition rate) Monochoria Vaginalis [4]: 5 (Level 5: the growth inhibition rate is greater than 85%)
Activity level (growth inhibition rate) Echinochloa crusgalli [5]: 5 (Level 5: the growth inhibition rate is greater than 85%)

CCOCc1cccc(C(C)OC(=O)C(C)Oc2nc(F)c(Cl)c(N)c2Cl)c1 (centres unmarked) [Compound 100]
Activity level (growth inhibition rate) Galium spurium [1]: 5 (Level 5: the growth inhibition rate is greater than 85%)
Activity level (growth inhibition rate) Abutilon theophrasti [2]: 5 (Level 5: the growth inhibition rate is greater than 85%)
Activity level (growth inhibition rate) Digitaria sanguinalis [3]: 5 (Level 5: the growth inhibition rate is greater than 85%)
Activity level (growth inhibition rate) Monochoria Vaginalis [4]: 5 (Level 5: the growth inhibition rate is greater than 85%)
Activity level (growth inhibition rate) Echinochloa crusgalli [5]: 5 (Level 5: the growth inhibition rate is greater than 85%)

CC(Oc1nc(F)c(Cl)c(N)c1Cl)C(=O)SCc1cccc(C(F)(F)F)c1 (centres unmarked) [Compound 233]
Activity level (growth inhibition rate) Galium spurium [1]: 5 (Level 5: the growth inhibition rate is greater than 85%)
Activity level (growth inhibition rate) Abutilon theophrasti [2]: 5 (Level 5: the growth inhibition rate is greater than 85%)
Activity level (growth inhibition rate) Digitaria sanguinalis [3]: 5 (Level 5: the growth inhibition rate is greater than 85%)
Activity level (growth inhibition rate) Monochoria Vaginalis [4]: 5 (Level 5: the growth inhibition rate is greater than 85%)
Activity level (growth inhibition rate) Echinochloa crusgalli [5]: 5 (Level 5: the growth inhibition rate is greater than 85%)

CC(Oc1nc(F)c(Cl)c(N)c1Cl)C(=O)SCc1nncn1C (centres unmarked) [Compound 134]
Activity level (growth inhibition rate) Galium spurium [1]: 5 (Level 5: the growth inhibition rate is greater than 85%)
Activity level (growth inhibition rate) Abutilon theophrasti [2]: 5 (Level 5: the growth inhibition rate is greater than 85%)
Activity level (growth inhibition rate) Digitaria sanguinalis [3]: 5 (Level 5: the growth inhibition rate is greater than 85%)
Activity level (growth inhibition rate) Monochoria Vaginalis [4]: 5 (Level 5: the growth inhibition rate is greater than 85%)
Activity level (growth inhibition rate) Echinochloa crusgalli [5]: 5 (Level 5: the growth inhibition rate is greater than 85%)
